We go through 4 molecules from patent publication US8658677B2, “Pyridyl-2-methylamino compounds, compositions and uses thereof” (Aria Neurosciences Inc., priority 2011, dated 2014).

“Also recorded” adds a separate entry of the source.

In data set [1] the test system is SK-N-SH human neuroblastoma cells. Briefly: Toxicity by MTT cell viability and LDH release assays. In kind it is cell-based. Conditions: 100 μM. As for the experimental part: The effect of 0.01-100 μmol/L concentrations of investigational compounds was tested on the viability of the N2a murine neuroblastoma cell line (American Type Culture Collection, Manassas, Va.). N2a cells were grown in Eagle's minimal essential medium with the addition of 10% fetal bovine serum, streptomycin and gentomycin (Sigma, St. Louis, Mo.), harvested with 2% trypsin and plated at 10,000 cells/100 μL per well in flatbottom, 96-well microtiter plates. The cells were allowed to attach to the plate overnight in an incubator (37° C., 5% CO2) and in the following morning stocks of investigational compounds (50 mmol/L stock diluted in DMSO) were added to cells to achieve the final concentration 0.01-100 μmol/L. Adequate amounts of DMSO (Dimethyl sulfoxide, Sigma, St. Louis, Mo.) were added to control cells. Cells were grown in the presence of investigational compounds for 48 h and then their viability was assessed using a metabolic assay, which is based on cleavage of the yellow tetrazolium salt (MTT) to purple formazan crystals by viable cells. The MTT assay (Roche Molecular Biochemicals, Indianapolis, Ind.) was performed according to the manufacturer's instructions. The results from cell culture neurotoxicity studies were evaluated by one-way analysis of variance, followed by a Dunnett's test as a post hoc analysis.
As shown in FIG. 2 (MTT assay), the compounds were tested for toxicity in SK-N-SH human neuroblastoma cells using MTT cell viability and LDH release (membrane integrity) assays.

For data set [2], the target named is T1, Aβ40 (Homo sapiens, UniProt P05067).
T1 construct: host or cells: chemical solid-phase peptide synthesis (no expression host)
The data set is described as follows: Oligomerization assay. In kind it is biochemical. Conditions: 100 μM Aβ40, 10 μM compound, 24 h; for amount of oligomers on SDS-PAGE: lanes 3-5. The procedure:
(§1) […] monomerized synthetic Aβ40 was incubated in 0.1M Tris pH 7.0, T=37° C. for 8 days in the presence of 0-100 μM concentration of compounds. […] An arrow indicates Aβ monomers clustered in ill developed protofibril. (C) Oligomerization assay. ARN4261 and ARN4224 reduced the amount of Aβ oligomers by 78% and 74%, respectively p<0.001. A compound 69b (GKLVFNmgA) was used as a positive control. 69b is homologous to Aβ sequence 17-21 and contains N-methyl glycine (Nmg), which renders it capable of anti-fibrillization and anti-oligomerization effect. (D) Principle of oligomerization assay. 100 μM Aβ40 was aggregated alone or with the addition of 10 μM of tested compounds [1:10 compound: Ab ratio] for 24 h in conditions promoting oligomers assembly, i.e., DMEM/F-12 medium+0.2% SDS, T=4° C. Prior to SDS-PAGE in non-reducing conditions samples were treated with glutaraldehyde. A strong smear of Aβ oligomers is seen between 37 and 70 KDa markers (arrows) in lane 2, and a dense band below the 25 KDa marker reflects Aβ monomers non-dissociated by 10% polyacrylamide gel. No oligomers above 37 KDa marker are seen in lane 1 containing only Aβ monomers run as a control. […] (E) TEM of Aβ oligomers. […] Yellow arrowhead indicates smaller oligomers.

Data set [3] has as its target T1, Aβ40. Briefly: Thioflavin-T fibrillization assay. Type of data set: biochemical.
Source text: Synthetic Aβ 1-40 peptide (sequence: […]) was synthesized at the W.M. Keck Foundation Facility (Yale University, New Haven, Conn.) by solid-phase technique on a p-methyl-benzhydrylamine resin, using a Biosearch SAM 2 synthesizer and purified by high performance liquid chromatography (HPLC) with the use of a reverse-phase support medium (Delta-Bondapak) on a 0.78×30 cm column with a 0-66% linear gradient of acetonitrile in 0.1% (v/v) trifluroacetic acid, as previously described. The peptide content of the eluate was monitored by measurement of its absorption at 214 nm. To verify the sequence and purity of the peptide, linear, time-of-flight mass spectrometry was performed at the Skirball Institute at New York University. For aggregation studies the peptide was diluted in 1,1,1,3,3,3-hexafluoro-2-propanol (HFIP; Sigma St. Loius, Mo.) at a concentration of 10 mM/mL, aliquoted and lyophilized. HFIP treatment renders peptides monomeric with minimal β-sheet content. Lyophilized peptides were stored at −80° C. and resuspended immediately prior to each experiment in the appropriate diluent.
The effect of compounds of the present invention on aggregation of Aβ 1-40 peptide was tested using a Thioflavin-T assay according to previously published methods. Aggregation of Aβ 1-40 incubated alone was measured for comparison. Aβ 1-40 was HFIP treated (as described above) and reconstituted in 100 mM Tris buffer (pH 7.4) to obtain a 100 μmol/L concentration. Stock of investigational compounds (50 mmol/L stock diluted in DMSO) was added to Aβ 1-40 to achieve of a concentration 10 or 100 μmol/L of investigational compound in 100 μmol/L of Aβ 1-40. All incubations were performed over a period of 7 days at 37° C. and the incubation mixture was slowly mixed for 6 hours every 24 h. At the conclusion of the experiment samples containing 15 μg of Aβ 1-40 with and without investigational compounds were added to 1 mL of 50 mM glycine, pH 9.2 and 2 μM of Thioflavin-T (Sigma Chemical, Co.; St. Louis, Mo.). Fluorescence was measured at an excitation of 435 nm and an emission of 485 nm in a Perkin-Elmer LS-50B fluorescence spectrophotometer (Perkin Elmer Instruments, Shelton, Conn.). A time scan of fluorescence was performed and three values after the decay reached a plateau (280, 290, 300 seconds) were averaged. The background fluorescence of 40 μL of Tris buffer added to 2 μM/L of Thioflavin-T solution was subtracted. Samples were run in duplicate. Differences in amount of fibrils formed in the presence of investigational compounds were evaluated by means of one-way ANOVA followed by a Dunnet post-hoc test using Statistica (version 6.1, StatSoft Inc., OK).
as §1

The subject of data set [4] is APP. Briefly: APP, C99, C83 and sAPP levels in 751APPSW CHO cells (immunoblot, immunostaining). In kind it is cell-based, human. As to conditions: 751APPSW CHO clone. On the technique in general: In western blotting, separated proteins are transferred to a membrane and probed.
Data set [5] has as its system APP. Briefly: Acute treatment experiment: brain soluble Aβ40, APP, C99 and C83. In kind it is in vivo, mice. Conditions: five days ip, ARN2966 50 mg/kg/day, Compound E 3 mg/kg/day. As for the experimental part: Furthermore, we conducted an acute treatment experiment where six months old female APPSW/PS1dE9 mice (n=3/group) were treated for five days with ARN2966 (50 mg/kg/day), Compound E (3 mg/kg/day) or Vehicle injected intraperitoneally. Mice were killed three hours after the last injections. The level of soluble Aβ40 was measured in the brain aliquots following diethylamine (DEA) extraction. It was lower in ARN2966 and Compound E treated groups by 39% (p<0.05) and 60% (p<0.05) comparing to vehicle treated mice, respectively (p<0.05; FIG. 6E).
FIGS. 6.(A, B) ARN2966 treatment reduces load of Aβ plaques (n=10 ARN2966, n=15 Vehicle). (B) Representative photomicrograph of Th-S stained brain sections from vehicle and ARN2966 treated 10 month old, female APPSW/PS1dE9reveal a difference in the load of Aβ plaques. […] (D) Reduced Aβ40 and Aβ42 levels in FA extracted brain homogenate, which represent the total brain content of Aβ peptides in ARN2966 treated animals (ELISA). (E) Reduced soluble Aβ40 level in DEA extracted brain homogenate, of ARN2966 and Compound E treated mice (ELISA). […] Aβ concentrations in (C) (D) and (E) are given per gram of wet brain. All values are given as mean±SEM. Statistical analysis was done using two-tailed unpaired t-test, following confirmation of normal distribution of data using Shapiro-Wilk test.

The term EC50 denotes the midpoint of the concentration-response curve. For orientation: Emax means the size of the effect at its maximum, as opposed to the concentration needed.

T1 sequence (P05067 672-711): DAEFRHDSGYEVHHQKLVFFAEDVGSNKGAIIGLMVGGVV

Turning to `COc1ccc(/C=N/Nc2nc3ccccc3n2C)cc1O` [ARN4224], in data set [1], the “toxicity in both MTT and LDH release assays” value is “showed toxicity”. Also, the “reduction of the amount of Aβ oligomers” value on Aβ40 [2] (DMEM/F-12 + 0.2% SDS, 4° C.) is reported as 74%. The “amount of oligomers on SDS-PAGE” value on Aβ40 [2] was “reduced amount of oligomers”. For the same molecule, on Aβ40 [3] (100 μM HFIP monomerized synthetic Aβ40, 0.1M Tris pH 7.0, 37° C., 8 days, 0-100 μM compound, read-out: EC50 of fibril reduction), the EC50 is 44 µM. In addition, the Emax on Aβ40 [3] (pH 7, read-out: EMAX (% of maximal fibril reduction)) is 55%.
Take `C[C@H](NC(=O)Cc1cc(F)cc(F)c1)C(=O)N[C@H](C(=O)OC(C)(C)C)c1ccccc1` [Compound D, N-[N-(3,5-difluorophenacetyl)-L-alanyl]-S-phenylglycine t-butyl ester, reference compound]: the “level of APP FL, C99 and C83 in cell lysates” value in the data set on APP [4] is “some accumulation of APP FL, and substantial accumulation of C99 and C83; also recorded: modestly increased the APP FL level and substantially increased levels of C83 and C99”.
With `C[C@H](NC(=O)Cc1cc(F)cc(F)c1)C(=O)N[C@H]1N=C(c2ccccc2)c2ccccc2N(C)C1=O` [Compound E, (S,S)-2-[2-(3,5-difluorophenyl)-acetylamino]-N-(1-methyl-2-oxo-5-phenyl-2,3-dihydro-1H-benzo[e][1,4]diazepin-3-yl)-propionamide, reference compound], in the data set on APP [5], the “APP, C99 and C83 signal in brain homogenate (western immunoblotting)” value is “modest increase in C99 and C83 signal”. For the same molecule, the “lowering of soluble Aβ40 (DEA extraction) in brain vs vehicle” value with APP [5] (killed three hours after last injection) was 60%. Besides, in the data set with APP [4], the “level of APP FL, C99 and C83 in cell lysates” value was “some accumulation of APP FL, and substantial accumulation of C99 and C83; also recorded: modestly increased the APP FL level and substantially increased levels of C83 and C99”; the “sAPP (sAPPα and total sAPP stub) in conditioned media” value is on record as “increased level of sAPP stubs”.
For GKLVFNmgA [69b, reference compound], the “amount of oligomers on SDS-PAGE” value on Aβ40 [2] is given as “reduced amount of oligomers”.
